What was measured:
[1] = tested on: cryopreserved hepatocytes; experiment: Hepatocyte stability and metabolite profiling, monkey; format: in vitro ADME; settings: monkey hepatocyte samples, 10 and 20 minute
Protocol: The objective of this study was to investigate the stability of the test compound, CBG, in human, rat, dog, mouse, monkey and minipig cryopreserved hepatocytes. Follow-on metabolite profiling was performed.
CBG was incubated up to 2 hr with cryopreserved hepatocytes. Cryopreserved hepatocytes in suspension were added to test compound in supplemented media following pre-incubation to initiate the reaction and the reactions were stopped by organic solvent at the appropriate time points. The termination plates were centrifuged and sample supernatants were analysed using Cyprotex generic LC MS/MS conditions to generate intrinsic clearance values for CBG. Two control compounds for each species were included in the assay and if the values for these compounds were not within the specified limits the results were rejected and the experiment repeated.
Following the hepatocyte stability assay the samples were 59 tilized for metabolite profiling using suitable high-resolution LC-MS/MS conditions. The 40 and 60 minute human samples, 20 and 120 minute rat samples, 10 and 20 minute dog and monkey samples, 20 and 60 minute mouse samples, and 40 and 120 minute minipig samples were compared against the 0 minute control sample to establish which and how many metabolites were formed. […]
The areas and percentages reported for the parent and metabolites were calculated using the XIC data. […]

[2] = tested on: indomethacin induced intestinal injury; experiment: Indomethacin-induced Crohn's disease in rats; format: in vivo
Protocol: The objective of this study was to determine the efficacy of Compound 1 and Compound 2 in a model of Crohn's disease (indomethacin induced intestinal injury) in rats.
The study design was identical for Compound 1 and Compound 2. On study day -3, rats were weighed and distributed into treatment groups based on body weight.
On study day 0, treatment was initiated and continue as indicated in the Study Design Tables below. Groups 2-6 received a subcutaneous injection of indomethacin (9 mg/kg, 1 ml/kg) in 5% sodium bicarbonate (Sterile Water). On study day 1, Groups 2-6 received a second subcutaneous injection of indomethacin (8 mg/kg, 1 ml/kg) in 5% sodium bicarbonate (Sterile Water). Live phase sample & data collection specifics are outlined below. On study day 4, animals will be euthanized, a section of the small intestine will be removed and weighed. Further necropsy sample and data collection is specified below. Overall efficacy of test articles will be based on body weight, small intestine weight (10 cm), small intestine gross score, and histopathology
At necropsy, the small intestines were evaluated visually and given a gross score according to the following criteria: 0=Normal. 0.5=Very Minimal thickening, multifocal in area at risk. 1=Minimal thickening, fairly diffuse in area at risk. 2=Mild to moderate small intestinal/mesenteric thickening throughout area at risk. 3=Moderate thickening with 1 or more definite adhesions that would be easy to separate. 4=Marked thickening with numerous hard to separate adhesions. 5=Severe intestinal lesion resulting in death.
Preserved 9-cm sections of small intestine were trimmed into 6 transverse sections collected at approximately equal intervals along the […] of the intestine, without bias toward lesion presence or absence. These trimmed sections were processed through graded alcohols and a clearing agent, infiltrated and embedded in paraffin, sectioned, and stained with hematoxylin and eosin (H&E).
Small intestine sections from all animals were examined microscopically by a board-certified veterinary pathologist, and observations were entered into a computer-assisted data retrieval system. Cross sections of small intestine were scored for inflammation and necrosis using the following criteria:
The area at risk for development of this lesion is generally approximately 30% of the total area of a cross section of small intestine where the mesentery attaches.
Inflammation is localized to the mesentery and intestinal area at risk for necrosis with slight extension on either side of it. […] In this case, inflammation is scored based on overall severity ranging from 0.5 (very minimal) to 5 (severe) without regard for the extent of necrosis. The mean score for necrosis and inflammation was calculated for each animal and these mean scores were then summed to arrive at a total score. Each section also has a measurement of total width of mucosal necrosis.

[3] = Group 5 (Compound 1: 200 mg/kg PO)
[4] = Groups 4 and 5 (Compound 1: 50 and 200 mg/kg PO)

Structure (SMILES) | metabolites observed (number) [1] | small intestine gross score compared to vehicle ([2]; Group 4 (Compound 1: 50 mg/kg PO)) | histopathology scores vs vehicle and dexamethasone [2, 3] | necrosis width vs vehicle and dexamethasone [2, 3] | Histopathology scores vs vehicle (Group 2) and positive control (Group 3) [2, 4] | necrosis width vs vehicle (Group 2) and positive control (Group 3) [2, 4] | small intestine gross score compared to vehicle ([2]; Groups 5-6 (Compound 1: 200 and 800 mg/kg PO)) | small intestine weight compared to vehicle ([2]; all three treatment groups (Groups 4-6), PO days 0-3) | body weight change from Study Day -3 (preventing weight loss) ([2]; all treatment groups (Groups 4-6), PO days 0-3, in comparison to dexamethasone (Compound 2: and vehicle))
CCCCCc1cc(O)c(C/C=C(\C)CCC=C(C)C)c(O)c1 [CBG, cannabigerol] | four |  |  |  |  |  |  |  | 
CCCCCc1cc(O)c(C/C=C(\C)CCC=C(C)C)c(OC)c1 [Compound 1, (E)-2-(3,7-dimethylocta-2,6-dien-1-yl)-3-methoxy-5-pentylphenol] |  | trend in lower small intestine gross score | significantly lower | significantly lower | trended lower | trended lower | significant reductions in gross score | significantly lower | all trended towards or had significant differences in preventing weight loss
